ChEMBL document CHEMBL1152415, “Potent antitumor bifunctional DNA alkylating agents, synthesis and biological activities of 3a-aza-cyclopenta[a]indenes” (Bioorg Med Chem, 2009)
pIC50: −log10 of the molar value. Calls of active or inactive are those of the source. The rule behind the calls is not given here.

Columns and labels:
CCRF-CEM [1] = test: Cytotoxicity against human vinblastine-resistant CCRF-CEM cells after 72 hrs by XTT assay; format: functional, cell-based
[2] = Cytotoxicity against human H1299 cells after 72 hrs by WST-1 assay; format: functional, cell-based; conditions: NCI-H1299, 72 h
CCRF-CEM [3] = test: Cross-resistance, IC50 for human vinblastine-resistant CCRF-CEM cells to IC50 for human CCRF-CEM cells; format: functional
[4] = Cell cycle arrest in human H1299 cells assessed as accumulation at S phase at 10 uM after 72 hrs by flow cytometry relative to control; format: functional, cell-based; conditions: NCI-H1299
[5] = Cell cycle arrest in human H1299 cells assessed as accumulation at G2/M phase at 10 uM after 72 hrs by flow cytometry relative to control; format: functional, cell-based; conditions: NCI-H1299
Nucleic Acid [6] = test: Induction of pEGFP-N1 plasmid DNA interstrand cross-linking at 10 uM after 2 hrs by alkaline agarose gel shift assay; format: nucleic-acid assay
Nucleic Acid [7] = test: Induction of pEGFP-N1 plasmid DNA interstrand cross-linking at 1 uM after 2 hrs by alkaline agarose gel shift assay; format: nucleic-acid assay
CCRF-CEM [8] = test: Cytotoxicity against human CCRF-CEM cells after 72 hrs by XTT assay; format: functional, cell-based
HCT-116 = test: Cytotoxicity against human HCT116 cells after 72 hrs by SRB assay; format: functional, cell-based; conditions: HCT-116, 72 h
[9] = Cell cycle arrest in human H1299 cells assessed as accumulation at G0/G1 phase at 10 uM after 48 hrs by flow cytometry relative to control; format: functional, cell-based; conditions: NCI-H1299
[10] = Cell cycle arrest in human H1299 cells assessed as accumulation at G0/G1 phase at 10 uM after 24 hrs by flow cytometry relative to control; format: functional, cell-based; conditions: NCI-H1299
MX1 = test: Cytotoxicity against human MX1 cells after 72 hrs by SRB assay; format: functional, cell-based; conditions: MX1, 72 h
CCRF-CEM [11] = test: Cross-resistance, IC50 for human taxol-resistant CCRF-CEM cells to IC50 for human CCRF-CEM cells; format: functional
[12] = Cell cycle arrest in human H1299 cells assessed as accumulation at G2/M phase at 10 uM after 48 hrs by flow cytometry relative to control; format: functional, cell-based; conditions: NCI-H1299
Nucleic Acid [13] = test: Induction of pEGFP-N1 plasmid DNA interstrand cross-linking at 20 uM after 2 hrs by alkaline agarose gel shift assay; format: nucleic-acid assay
Nucleic Acid [14] = test: Induction of DNA interstrand cross-linking in human H1299 cells at 100 uM under aerobic condition for 1 hr followed by irradiated with 20 Gy of X-ray by modified comet assay relative to irradiated untreated control; format: cell-based
CCRF-CEM [15] = test: Cytotoxicity against human taxol-resistant CCRF-CEM cells after 72 hrs by XTT assay; format: functional, cell-based
[16] = Cell cycle arrest in human H1299 cells assessed as accumulation at subG1 phase at 10 uM after 48 hrs by flow cytometry relative to control; format: functional, cell-based; conditions: NCI-H1299
[17] = Cell cycle arrest in human H1299 cells assessed as accumulation at subG1 phase at 10 uM after 24 hrs by flow cytometry relative to control; format: functional, cell-based; conditions: NCI-H1299
[18] = Cytotoxicity against human U87 cells after 72 hrs by WST-1 assay; format: functional, cell-based, U-87MG ATCC; conditions: U-87 MG
[19] = Cell cycle arrest in human H1299 cells assessed as accumulation at S phase at 10 uM after 48 hrs by flow cytometry relative to control; format: functional, cell-based; conditions: NCI-H1299
[20] = Cell cycle arrest in human H1299 cells assessed as accumulation at G2/M phase at 10 uM after 24 hrs by flow cytometry relative to control; format: functional, cell-based; conditions: NCI-H1299
[21] = Cytotoxicity against human OECM1 cells after 72 hrs by WST-1 assay; format: functional, cell-based; conditions: OECM1, 72 h
[22] = Cell cycle arrest in human H1299 cells assessed as accumulation at S phase at 10 uM after 24 hrs by flow cytometry relative to control; format: functional, cell-based; conditions: NCI-H1299
[23] = Cell cycle arrest in human H1299 cells assessed as accumulation at subG1 phase at 10 uM after 72 hrs by flow cytometry relative to control; format: functional, cell-based; conditions: NCI-H1299
[24] = Cell cycle arrest in human H1299 cells assessed as accumulation at G0/G1 phase at 10 uM after 72 hrs by flow cytometry relative to control; format: functional, cell-based; conditions: NCI-H1299
PC-3 = test: Cytotoxicity against human PC3 cells after 72 hrs by WST-1 assay; format: functional, cell-based; conditions: PC-3, 72 h

SMILES	pIC50 (CCRF-CEM [1])	Ratio IC50 (CCRF-CEM [3])	pIC50 (CCRF-CEM [8]; read-out: IC50)	pIC50 (HCT-116)	pIC50 (MX1)	Ratio IC50 (CCRF-CEM [11])	pIC50 (CCRF-CEM [15])	also measured
CNC(=O)OCc1c(COC(=O)NC)c(-c2ccc(OC)cc2)n2c1Cc1cc(OC)ccc1-2	7.01	1.6	7.21	6.36	6.06	1	7.21	pIC50 [2]: 4.68; Activity [4]: 9.19%; Activity [5]: 85.8%; Activity (Nucleic Acid [6]): Active; Activity (Nucleic Acid [7]): Active; Activity [9]: 24.9%; Activity [10]: 44.7%; Activity [12]: 49.5%; Activity (Nucleic Acid [13]): Active; Activity (Nucleic Acid [14]): 97.9%; Activity [16]: 5.86%; Activity [17]: 2.64%; pIC50 [18]: 4.42; Activity [19]: 25.6%; Activity [20]: 4.15%; pIC50 [21]: 5.90; Activity [22]: 51.1%; Activity [23]: 17.2%; Activity [24]: 5.06%; pIC50 (PC-3): 4.66
OCc1c(CO)c(-c2ccc(F)c(F)c2)n2c1Cc1ccccc1-2	5.12	1.4	5.28	4.96	5.15	1.4	5.12	
COc1ccc(-c2c(CO)c(CO)c3n2-c2ccccc2C3)cc1OC	5.72	1.8	6.00	5.37	4.96	1.1	5.96	
OCc1c(CO)c(-c2ccc(F)cc2)n2c1Cc1ccccc1-2	4.96	2.5	5.35	5.06	4.66	1.6	5.14	
COc1ccc(-c2c(CO)c(CO)c3n2-c2ccccc2C3)cc1	5.80	1.4	5.92	5.21	4.96	1.5	5.77	pIC50 [2]: 4.30; pIC50 [18]: 4.34; pIC50 [21]: 5.03; pIC50 (PC-3): 4.26
CO[C@@]12[C@H](COC(N)=O)C3=C(C(=O)C(C)=C(N)C3=O)N1C[C@@H]1N[C@@H]12								Activity (Nucleic Acid [14]): 76.5%
CNC(=O)OCc1c(COC(=O)NC)c(-c2ccccc2)n2c1Cc1ccccc1-2	6.26	1.6	6.44	6.12	5.23	4.7	5.77	
CC(=O)O[C@H]1C(=O)[C@@]2(C)[C@H]([C@H](OC(=O)c3ccccc3)[C@]3(O)C[C@H](OC(=O)[C@H](O)[C@@H](NC(=O)c4ccccc4)c4ccccc4)C(C)=C1C3(C)C)[C@]1(OC(C)=O)CO[C@@H]1C[C@@H]2O [PACLITAXEL]	6.40	333				1000	5.92	pIC50 (CCRF-CEM [8]): 8.92
CNC(=O)OCc1c(COC(=O)NC)c(-c2c(OC)cccc2OC)n2c1Cc1ccccc1-2	6.21	0.97	6.19	5.96	5.28	1.1	6.14	
COc1ccccc1-c1c(CO)c(CO)c2n1-c1ccccc1C2	5.57	2.6	6.00	4.92	5.06	1.9	5.72	
CNC(=O)OCc1c(COC(=O)NC)c(-c2ccc(F)c(F)c2)n2c1Cc1ccccc1-2	6.19	1	6.19	6.05	5.09	0.97	6.21	
CNC(=O)OCc1c(COC(=O)NC)c2n(c1C)-c1ccccc1C2	7.20	0.53	6.92	6.52	6.47	0.67	6.92	pIC50 [2]: < 4.30; pIC50 [18]: < 4.30; pIC50 [21]: 5.84; pIC50 (PC-3): 4.57
CNC(=O)OCc1c(COC(=O)NC)c(-c2ccc(OC)c(OC)c2)n2c1Cc1ccccc1-2	6.30	1.4	6.46	6.18	5.74	1.1	6.41	
COc1cccc(OC)c1-c1c(CO)c(CO)c2n1-c1ccccc1C2	5.12	0.92	5.09	4.37	4.59	0.76	5.21	
COc1cc(-c2c(CO)c(CO)c3n2-c2ccccc2C3)cc(OC)c1OC	6.00	0.45	5.66	4.54	4.77	0.52	5.96	
CNC(=O)OCc1c(COC(=O)NC)c(-c2ccc(F)cc2)n2c1Cc1ccccc1-2	6.55	2	6.85	6.40	6.13	2.2	6.52	
CC[C@]1(O)C[C@@H]2CN(CCc3c([nH]c4ccccc34)[C@@](C(=O)OC)(c3cc4c(cc3OC)N(C)[C@H]3[C@@](O)(C(=O)OC)[C@H](OC(C)=O)[C@]5(CC)C=CCN6CC[C@]43[C@@H]65)C2)C1 [VINBLASTINE]		107				685		
COc1ccc(-c2c(CO)c(CO)c3n2-c2ccc(OC)cc2C3)cc1	6.85	1.2	6.92	6.17	5.82	0.53	7.21	pIC50 [2]: 4.72; Activity [4]: 24.6%; Activity [5]: 73.6%; Activity (Nucleic Acid [6]): Active; Activity (Nucleic Acid [7]): Active; Activity [9]: 19.3%; Activity [10]: 43.7%; Activity [12]: 41.9%; Activity (Nucleic Acid [13]): Active; Activity (Nucleic Acid [14]): 35.5%; Activity [16]: 3.88%; Activity [17]: 1.95%; pIC50 [18]: 4.61; Activity [19]: 38.9%; Activity [20]: 5.84%; pIC50 [21]: 5.81; Activity [22]: 50.5%; Activity [23]: 15.6%; Activity [24]: 1.8%; pIC50 (PC-3): 4.63
CCc1c(COC(=O)NC)c(COC(=O)NC)c2n1-c1ccccc1C2	7.00	1.5	7.15	6.15	6.18	1.2	7.10	pIC50 [2]: < 4.30; pIC50 [18]: < 4.30; pIC50 [21]: 4.93; pIC50 (PC-3): < 4.30
OCc1c(CO)c(-c2ccccc2)n2c1Cc1ccccc1-2	6.60	1	6.60	5.72	5.89	0.9	6.66	
CNC(=O)OCc1c(COC(=O)NC)c(-c2ccc(Cl)cc2)n2c1Cc1ccccc1-2	5.64	0.4	5.24	5.05	5.00	0.58	5.48	
OCc1c(CO)c(-c2ccc(Cl)cc2)n2c1Cc1ccccc1-2	5.35	1	5.37	5.24	5.21	0.55	5.62	
CNC(=O)OCc1c(COC(=O)NC)c(-c2cc(OC)c(OC)c(OC)c2)n2c1Cc1ccccc1-2	4.85	1.2	4.92	5.72	5.14	0.73	5.08	
